Reference: patent publication US20260199367A1, “PLK1 DEGRADATION INDUCING COMPOUNDS WITH INCREASED RIGIDITY” (UPPTHERA, INC., priority 2022, published 2026)

Legend:
Format in all cases: cell-based
NCI-H69 (H69) cell line = test: Cell viability assay for NCI-H69 cell line; conditions: Homo sapiens, NCI-H69, 120 h, 5 days, EZ-Cytox, 0.46-3000 nM
Excerpt: (§1) The NCI-H69 (hereafter H69) and NCI-H526 (hereafter H526) cell lines were purchased from Korea Cell Line Bank (KCLB, Seoul, Korea). For cell culture, RPMI 1640 (Gibco, Cat. No. 22400-089; Lot. No. 2537146), FBS (Gibco, Cat. No. 16000-044; Lot. No. 2511328P), Penicillin/Streptomycin (PS) (Gibco, Cat. No. 15140-122; Lot. No. 2441887), 75T cell culture flask (SPL, Cat. No. 71075), 175T cell culture flask (SPL, Cat. No. 71175), 96-well cell culture plate (SPL, Cat. No. 30096), PBS pH 7.4 (Gibco, Cat. No. 10010-023; Lot. No. 2509235), TrypLE™ Express (Gibco, Cat. No. 12605-010; Lot. No. 2323417), Cell Counter (Hematocytometer)(As one, Cat. No. 4-458-01), and 0.4% Trypan Blue Solution (DYNEBIO, Cat. No. CBT3710; Lot. No. 20221111) were used.
(§2) The compounds of Examples were completely dissolved in DMSO (Sigma-Aldrich Cat. No. D2438, Lot. No. RNBL7287) and used in the experiment. 3×10^4 cells were seeded for each well of a 96-well plate (SPL), and the cells were cultured in total volume of 150 μl. Each compound was diluted 3-folds from the highest concentration of 3000 nM to the lowest concentration of 0.46 nM. After treating the compound to each well to make the total volume of 200 μl, it was cultured in a CO2 incubator (Thermo Fisher Science, Cat. No. 4111) for 5 days. Then, after treating EZ-Cytox (DOGEN, Cat.NO. EZ-3000, Lot. No. DLS2308) 20 μl in each well, it was cultured in CO2 incubator for 4 hours. The absorbance of the completely cultured sample was measured by setting the wavelength of a plate reader (BMG Labtech, CLARIOstar Plus) to […], and was measured after shaking for 3 minutes in a plate reader before measurement.
(§3) (A: IC50 is less than 20 nM, B: IC50 is 50 nM or less, C: IC50 is 100 nM or less)

[1] = system: NCI-H526 (H526) cell line; test: Cell viability assay for NCI-H526 cell line; conditions: Homo sapiens, NCI-H526, 120 h, 5 days, EZ-Cytox, 0.46-3000 nM
Excerpt: as §1, §2, §3

PLK1 = target: T1, PLK1 (Homo sapiens, UniProt P53350); test: Luciferase assay for PLK1 in HeLa LgBit (PLK1-HiBit KI) cell line; conditions: released after thymidine block, compound 300 nM, luminescence after 9 hours
T1 construct: endogenous in cells; host or cells: HeLa LgBit (PLK1-HiBit KI): HeLa cells stably expressing LgBit, with CRISPR/Cas9 knock-in of HiBit at the endogenous PLK1 locus
T1 sequence (P53350 whole entry): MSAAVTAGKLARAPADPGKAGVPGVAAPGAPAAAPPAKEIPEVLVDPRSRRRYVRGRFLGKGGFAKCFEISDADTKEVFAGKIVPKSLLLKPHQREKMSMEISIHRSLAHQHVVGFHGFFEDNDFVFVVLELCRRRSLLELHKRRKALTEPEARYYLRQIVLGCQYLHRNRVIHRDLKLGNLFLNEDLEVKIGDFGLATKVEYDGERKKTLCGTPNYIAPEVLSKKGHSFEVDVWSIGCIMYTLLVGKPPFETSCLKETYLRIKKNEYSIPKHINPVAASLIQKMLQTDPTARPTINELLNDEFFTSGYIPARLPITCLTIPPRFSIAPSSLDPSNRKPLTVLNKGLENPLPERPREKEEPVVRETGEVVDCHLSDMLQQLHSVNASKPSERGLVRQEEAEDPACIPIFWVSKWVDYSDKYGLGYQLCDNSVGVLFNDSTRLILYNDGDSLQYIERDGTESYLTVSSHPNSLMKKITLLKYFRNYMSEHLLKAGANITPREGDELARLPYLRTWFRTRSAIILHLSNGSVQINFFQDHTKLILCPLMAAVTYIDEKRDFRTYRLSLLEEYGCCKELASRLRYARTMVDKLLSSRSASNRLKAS
Description: A HeLa cell line in which the LgBit vector was transfected and expressed stably was prepared. Then, after constructing gRNA and donor to express the HiBit amino acid sequence behind the C-terminal of the PLK1 gene, which was inherent in the cell, it was inserted into the cell together with a vector capable of expressing CRISPR/Cas9. Only the cells in which the insertion was completed and knock-in had progressed were selected, sub-cultured and used.
The compounds of Examples were completely dissolved in DMSO (Sigma-Aldrich Cat. No. D2438, Lot. No. RNBL5438) and used in the experiment.
In the case of HeLa LgBit (Plk1-HiBit KI), the compounds were treated after being released after thymidine block, and the process was as follows. Thymidine (Sigma-Aldrich Cat. No. T9250-5G) was completely dissolved in ddH2O and used in the experiment. For thymidine block, the products were treated with 2 mM of thymidine and then incubated for 24 hours. For release and chemical treatment, the medium was suctioned and washed with 1×PBS. TrypLE™ was added and incubated in 37° C. CO2 incubator (Thermo Fisher Science, Cat. No. 4111) for 5 mins. Cells neutralized by adding complete media were counted through a counter. For each well of a 96-well culture plate (SPL), 3.3×10^4 cells and a total medium volume of 150 μl were seeded and incubated in a CO2 incubator.
Each cell line was incubated in a CO2 incubator for 18 hours, and Endurazine (Promega, Cat. No. N257B) was added to each well to make up 4% of the total volume. After adding compounds of Examples in a 96-well white plate (SPL) to a concentration of 300 nM, the wavelength of the plate reader (BMG Labtech, CLARIOstar Plus) was set to 470-480 nM, and then the luminescence was tracked in real time.

Row | SMILES | Value (luminescence value, PLK1-HiBit) (PLK1) | IC50 (NCI-H69 (H69) cell line) [nM] | IC50 [1] [nM]
1 | CC[C@@H]1C(=O)N(C)c2cnc(Nc3ccc(C(=O)NCC4CCN(CC5CCN(c6ccc(NC7CCC(=O)NC7=O)cc6)CC5)CC4)cc3OC)nc2N1C1CCCC1 (stereo partly drawn) [Compound 13, 4-(((R)-8-cyclopentyl-7-ethyl-5-methyl-6-oxo-5,6,7,8-tetrahydropteridin-2-yl)amino)-N-((1-((1-(4-((2,6-dioxopiperidin-3-yl)amino)phenyl)piperidin-4-yl)methyl)piperidin-4-yl)methyl)-3-methoxybenzamide] | 0.165 | ≤ 100 | < 20
2 | CC[C@@H]1C(=O)N(C)c2cnc(Nc3ccc(C(=O)NC4CCN(C(=O)CCN5CCN(c6ccc(NC7CCC(=O)NC7=O)cc6)CC5)CC4)cc3OC(F)(F)F)nc2N1C1CCCC1 (stereo partly drawn) [Compound 14, 4-(((R)-8-cyclopentyl-7-ethyl-5-methyl-6-oxo-5,6,7,8-tetrahydropteridin-2-yl)amino)-N-(1-(3-(4-(4-((2,6-dioxopiperidin-3-yl)amino)phenyl)piperazin-1-yl)propanoyl)piperidin-4-yl)-3-(trifluoromethoxy)benzamide] | 0.269 | ≤ 50 | < 20
3 | CC[C@@H]1C(=O)N(C)c2cnc(Nc3ccc(-c4nnc(CNC5CCN(C(=O)C(N)CN6CCN(c7ccc(C8CCC(=O)NC8=O)cc7)CC6)CC5)o4)cc3OC)nc2N1C1CCCC1 (stereo partly drawn) [Compound 15, 3-(4-(4-(2-amino-3-(4-(((5-(4-(((R)-8-cyclopentyl-7-ethyl-5-methyl-6-oxo-5,6,7,8-tetrahydropteridin-2-yl)amino)-3-methoxyphenyl)-1,3,4-oxadiazol-2-yl)methyl)amino)piperidin-1-yl)-3-oxopropyl)piperazin-1-yl)phenyl)piperidine-2,6-dione] | 0.345 | ≤ 100 | ≤ 50
4 | CC[C@@H]1C(=O)N(C)c2cnc(Nc3ccc(-c4nnc(CNC5CCC(N6CCC(NCc7ccc(C8CCC(=O)NC8=O)cc7)CC6)CC5)o4)cc3OC)nc2N1C1CCCC1 (stereo partly drawn) [Compound 16, 3-(4-(((1-((1r,4r)-4-(((5-(4-(((R)-8-cyclopentyl-7-ethyl-5-methyl-6-oxo-5,6,7,8-tetrahydropteridin-2-yl)amino)-3-methoxyphenyl)-1,3,4-oxadiazol-2-yl)methyl)amino)cyclohexyl)piperidin-4-yl)amino)methyl)phenyl)piperidine-2,6-dione] | 0.263 | ≤ 100 | ≤ 50
5 | CC[C@@H]1C(=O)N(C)c2cnc(Nc3ccc(C(=O)NC4CCN(C5CCN(CCc6ccc(C7CCC(=O)NC7=O)cc6)CC5)CC4)cc3OC)nc2N1C1CCCC1 (stereo partly drawn) [Compound 22, 4-(((R)-8-cyclopentyl-7-ethyl-5-methyl-6-oxo-5,6,7,8-tetrahydropteridin-2-yl)amino)-N-(1′-(4-(2,6-dioxopiperidin-3-yl)phenethyl)-[1,4′-bipiperidin]-4-yl)-3-methoxy benzamide] | 0.145 | ≤ 50 | < 20
6 | CC[C@@H]1C(=O)N(C)c2cnc(Nc3ccc(C(=O)NN4CCC(C5CCN(CCc6ccc(C7CCC(=O)NC7=O)cc6)CC5)CC4)cc3OC)nc2N1C1CCCC1 (stereo partly drawn) [Compound 23, 4-(((R)-8-cyclopentyl-7-ethyl-5-methyl-6-oxo-5,6,7,8-tetrahydropteridin-2-yl)amino)-N-(1′-(4-(2,6-dioxopiperidin-3-yl)phenethyl)-[4,4′-bipiperidin]-1-yl)-3-methoxy benzamide] | 0.186 | < 20 | < 20
7 | CC[C@@H]1C(=O)N(C)c2cnc(Nc3ccc(C(=O)NC4CCN(C(=O)CCN5CCN(c6ccc(NC7CCC(=O)NC7=O)cc6)CC5)CC4)cc3OC)nc2N1C1CCCC1 (stereo partly drawn) [Compound 24, 4-(((R)-8-cyclopentyl-7-ethyl-5-methyl-6-oxo-5,6,7,8-tetrahydropteridin-2-yl)amino)-N-(1-(3-(4-(4-((2,6-dioxopiperidin-3-yl)amino)phenyl)piperazin-1-yl)propanoyl)piperidin-4-yl)-3-methoxybenzamide] | 0.206 | < 20 | < 20

Now from value to compound, other results behind:

Row | Value (luminescence value, PLK1-HiBit) (PLK1) | SMILES | IC50 (NCI-H69 (H69) cell line) [nM] | IC50 [1] [nM]
8 | 0.172 | CC[C@@H]1C(=O)N(C)c2cnc(Nc3ccc(-c4nnc(CNC5CCC(NCC6CCN(c7ccc(C8CCC(=O)NC8=O)cc7F)CC6)CC5)o4)cc3OC)nc2N1C1CCCC1 (stereo partly drawn) [Compound 17, 3-(4-(4-((((1r,4r)-4-(((5-(4-(((R)-8-cyclopentyl-7-ethyl-5-methyl-6-oxo-5,6,7,8-tetrahydropteridin-2-yl)amino)-3-methoxyphenyl)-1,3,4-oxadiazol-2-yl)methyl)amino)cyclohexyl)amino)methyl)piperidin-1-yl)-3-fluorophenyl)piperidine-2,6-dione] | ≤ 50 | < 20
9 | 0.111 | CC[C@@H]1C(=O)N(C)c2cnc(Nc3ccc(C(=O)NC4CCC(NCC5CCN(c6ccc(C7CCC(=O)NC7=O)cc6F)CC5)CC4)cc3OC)nc2N1C1CCCC1 (stereo partly drawn) [Compound 18, 4-(((R)-8-cyclopentyl-7-ethyl-5-methyl-6-oxo-5,6,7,8-tetrahydropteridin-2-yl)amino)-N-((1r,4R)-4-(((1-(4-(2,6-dioxopiperidin-3-yl)-2-fluorophenyl)piperidin-4-yl)methyl)amino)cyclohexyl)-3-methoxybenzamide] | < 20 | < 20
10 | 0.132 | CC[C@@H]1C(=O)N(C)c2cnc(Nc3ccc(C(=O)NN4CCC(C(N)CN5CCN(c6ccc(C7CCC(=O)NC7=O)cc6F)CC5)CC4)cc3OC)nc2N1C1CCCC1 (stereo partly drawn) [Compound 19, N-(4-(1-amino-2-(4-(4-(2,6-dioxopiperidin-3-yl)-2-fluorophenyl)piperazin-1-yl)ethyl)piperidin-1-yl)-4-(((R)-8-cyclopentyl-7-ethyl-5-methyl-6-oxo-5,6,7,8-tetrahydropteridin-2-yl)amino)-3-methoxybenzamide] | ≤ 50 | ≤ 50
11 | 0.154 | CC[C@@H]1C(=O)N(C)c2cnc(Nc3ccc(C(=O)NC4CCC(N5CCN(CCc6ccc(C7CCC(=O)NC7=O)cc6)CC5)CC4)cc3OC)nc2N1C1CCCC1 (stereo partly drawn) [Compound 20, 4-(((R)-8-cyclopentyl-7-ethyl-5-methyl-6-oxo-5,6,7,8-tetrahydropteridin-2-yl)amino)-N-((1r,4R)-4-(4-(4-(2,6-dioxopiperidin-3-yl)phenethyl)piperazin-1-yl)cyclohexyl)-3-methoxybenzamide] | < 20 | < 20
12 | 0.144 | CC[C@@H]1C(=O)N(C)c2cnc(Nc3ccc(C(=O)NN4CCC(N5CCC(CNc6ccc(C7CCC(=O)NC7=O)cc6)CC5)CC4)cc3OC)nc2N1C1CCCC1 (stereo partly drawn) [Compound 21, 4-(((R)-8-cyclopentyl-7-ethyl-5-methyl-6-oxo-5,6,7,8-tetrahydropteridin-2-yl)amino)-N-(4-(((4-(2,6-dioxopiperidin-3-yl)phenyl)amino)methyl)-[1,4′-bipiperidin]-1′-yl)-3-methoxybenzamide] | < 20 | < 20
